Data from patent US20150344457A1, “METHODS OF INHIBITING PRMT5” (EPIZYME, INC., priority 2012, published 2015).

Columns and labels:
Z-138 cells [1] = assay: Z-138 Proliferation Assay (Cell Titer Glo, 5 days); format: cell-based; details: Homo sapiens, Table D-2
Outline: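 Exponentially growing Z-138 cells (10,000 cells/ml) in RPMI 1640 with 10% FBS are exposed to nine-point 3-fold dilutions (final top concentration 20 μM, 0.2% DMSO) for 5 days at 37° C. Viability is measured as ATP by CellTiter-Glo luminescence. The 50% inhibitory concentration comes from a 4-parameter fit.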

Z-138 cells [2] = assay: Z-138 Methylation Assay (In Cell Western for symmetric di-methyl arginine and DNA content); format: cell-based; details: Homo sapiens, Table D-2, read-out: ICW EC50
Outline: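 Symmetric di-methyl arginine signal (800 nm) ratioed to DNA content (700 nm) by In Cell Western after four days of compound treatment of Z-138 suspension cells seeded at 50,000 cells/mL. Percent inhibition set between DMSO and 3 μM reference wells; IC50 curves from triplicates.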

EC50 (Z-138 cells [2]) [µM] | SMILES | EC50 (Z-138 cells [1]) [µM]
1 to 10 | CC(C)(C)OCc1cccc(-c2cccc(OCC(O)CN3CCc4ccccc4C3)c2)c1 (stereo not drawn) [Compound D150] | > 20
1 to 10 | CN(C)c1ccc(-c2cccc(OCC(O)CN3CCc4ccccc4C3)c2)cc1 (stereo not drawn) [Compound D151] | > 20
1 to 10 | NC(=O)c1ccc(-c2cccc(OCC(O)CN3CCc4ccccc4C3)c2)cc1 (stereo not drawn) [Compound D152] | > 20
1 to 10 | O=C1COc2ccc(-c3cccc(OCC(O)CN4CCc5ccccc5C4)c3)cc2N1 (stereo not drawn) [Compound D156] | 10 to 40
1 to 10 | Cn1nccc1C(=O)Nc1cccc(OCC(O)CN2CCc3ccccc3C2)c1 (stereo not drawn) [Compound D160] | > 20
1 to 10 | O=C(Nc1cccc(OCC(O)CN2CCc3ccccc3C2)c1)c1cncnc1 (stereo not drawn) [Compound D161] | > 20
1 to 10 | Cn1ccc(C(=O)Nc2cccc(OCC(O)CN3CCc4ccccc4C3)c2)n1 (stereo not drawn) [Compound D162] | > 20
10 to 40 | OC(COc1cccc(-c2ccc3cnoc3c2)c1)CN1CCc2ccccc2C1 (stereo not drawn) [Compound D166] | > 20
1 to 10 | OC(COc1cccc(-c2ccccc2Oc2ccccc2)c1)CN1CCc2ccccc2C1 (stereo not drawn) [Compound D167] | > 20
10 to 40 | COc1ccc(-c2cccc(OCC(O)CN3CCc4ccccc4C3)c2)cc1Cl (stereo not drawn) [Compound D168] | > 20
0.101 to 1 | CC(=O)Nc1cccc(-c2cccc(OCC(O)CN3CCc4ccccc4C3)c2)c1 (stereo not drawn) [Compound D169] | > 20
1 to 10 | OC(COc1cccc(-c2csc3ccccc23)c1)CN1CCc2ccccc2C1 (stereo not drawn) [Compound D170] | > 20
1 to 10 | NC(=O)c1cccc(-c2cccc(OCC(O)CN3CCc4ccccc4C3)c2)c1 (stereo not drawn) [Compound D171] | > 20
1 to 10 | N#Cc1cccc(-c2cccc(OCC(O)CN3CCc4ccccc4C3)c2)c1 (stereo not drawn) [Compound D172] | > 20
0.101 to 1 | Cn1cnc2ccc(-c3cccc(OC[C@H](O)CN4CCc5ccccc5C4)c3)cc21 [Compound D174] | 1 to 10
0.101 to 1 | Cn1ccc2ccc(-c3cccc(OCC(O)CN4CCc5ccccc5C4)c3)nc21 (stereo not drawn) [Compound D176] | > 20
> 20 | COC(=O)c1cncc(-c2cccc(OCC(O)CN3CCc4ccccc4C3)c2)c1 (stereo not drawn) [Compound D180] | > 20
1 to 10 | CNC(=O)c1cncc(-c2cccc(OCC(O)CN3CCc4ccccc4C3)c2)c1 (stereo not drawn) [Compound D182] | > 20
1 to 10 | Cn1cnc(C(=O)Nc2cccc(OCC(O)CN3CCc4ccccc4C3)c2)c1 (stereo not drawn) [Compound D183] | > 20
1 to 10 | O=C(c1cccc(-c2cccc(OCC(O)CN3CCc4ccccc4C3)c2)c1)N1CCCC1 (stereo not drawn) [Compound D185] | 10 to 40
1 to 10 | CNC(=O)c1cccc(-c2cccc(OCC(O)CN3CCc4ccccc4C3)c2)c1 (stereo not drawn) [Compound D186] | > 20
1 to 10 | Cc1cn(C)c2cc(-c3cccc(OCC(O)CN4CCc5ccccc5C4)c3)ccc12 (stereo not drawn) [Compound D187] | > 20
1 to 10 | OC(COc1cccc(-c2ccc3ncoc3c2)c1)CN1CCc2ccccc2C1 (stereo not drawn) [Compound D188] | 10 to 40
0.101 to 1 | Cn1cnc2ccc(-c3cccc(OCC(O)CN4CCc5ccccc5C4)c3)nc21 (stereo not drawn) [Compound D189] | 0.101 to 1
0.101 to 1 | Cn1cnc2cnc(-c3cccc(OCC(O)CN4CCc5ccccc5C4)c3)nc21 (stereo not drawn) [Compound D191] | 1 to 10
< 0.1 | Cn1cnc2ccc(-c3cncc(NCC(O)CN4CCc5ccccc5C4)c3)cc21 (stereo not drawn) [Compound D199] | 1 to 10
10 to 40 | OC(COc1cccc(-c2cc(OC(F)(F)F)ccc2Cl)c1)CN1CCc2ccccc2C1 (stereo not drawn) [Compound D200] | > 20
1 to 10 | CC(C)Oc1ccc(F)c(-c2cccc(OCC(O)CN3CCc4ccccc4C3)c2)c1 (stereo not drawn) [Compound D201] | > 20
0.101 to 1 | Cn1ncc2ccc(-c3cc(NCC(O)CN4CCc5ccccc5C4)ncn3)cc21 (stereo not drawn) [Compound D205] | > 20
0.101 to 1 | Cn1cnc2ccc(-c3cc(NCC(O)CN4CCc5ccccc5C4)ncn3)cc21 (stereo not drawn) [Compound D207] | 1 to 10
